Data as given in patent publication US9458447B2, “MPHOSPH1 peptides and vaccines including the same” (OncoTherapy Science, Inc., priority 2011, dated 2016).
Where no end group is shown, it is not given here.

What was measured:
Assay type in all cases: cell-based, human
peptide-pulsed T2 cells = assay: IFN-gamma ELISPOT assay of CTLs induced with peptide-pulsed DCs; conditions: CTLs from HLA-A*0201 positive donor after 3rd peptide stimulation, day 21; peptide-pulsed T2 vs control wells
Description: Monocyte-derived dendritic cells (DCs) were used as antigen-presenting cells to induce cytotoxic T lymphocyte (CTL) that responses against peptides presented on human leukocyte antigen (HLA). DCs were generated in vitro as described elsewhere (Nakahara S et al., Cancer Res 2003 Jul. 15, 63(14): 4112-8). Specifically, peripheral blood mononuclear cells isolated from a normal volunteer (HLA-A*0201 positive) by Ficoll-Paque plus (Pharmacia) solution were separated by adherence to a plastic tissue culture dish (Becton Dickinson) so as to enrich them as the monocyte fraction. The monocyte-enriched population was cultured in the presence of 1000 U/ml of granulocyte-macrophage colony-stimulating factor (R&D System) and 1000 U/ml of interleukin (IL)-4 (R&D System) in AIM-V Medium (Invitrogen) containing 2% heat-inactivated autologous serum (AS). After 7 days of culture, the cytokine-induced DCs were pulsed with 20 microgram/ml of each of the synthesized peptides in the presence of 3 microgram/ml of beta 2-microglobulin for 3 hr at 37 degrees C. in AIM-V Medium. The generated cells appeared to express DC-associated molecules, such as CD80, CD83, CD86 and HLA class II, on their cell surfaces (data not shown). These peptide-pulsed DCs were then inactivated by X ray-irradiated (20 Gy) and mixed at a 1:20 ratio with autologous CD8^+ T cells, obtained by positive selection with CD8 Positive Isolation Kit (Dynal). These cultures were set up in 48-well plates (Corning); each well contained 1.5×10^4 peptide-pulsed DCs, 3×10^5 CD8^+ T cells and 10 ng/ml of IL-7 (R&D System) in 0.5 ml of AIM-V/2% AS medium. Three days later, these cultures were supplemented with IL-2 (CHIRON) to a final concentration of 20 IU/ml. On day 7 and 14, the T cells were further stimulated with the autologous peptide-pulsed DCs. The DCs were prepared each time by the same way described above. CTL was tested against peptide-pulsed T2 cells after the 3rd round of peptide stimulation on day 21 (Tanaka H et al., Br J Cancer 2001 Jan. 5, 84(1): 94-9; Umano Y et al., Br J Cancer 2001 Apr. 20, 84(8): 1052-7; Uchida N et al., Clin Cancer Res 2004 Dec. 15, 10(24): 8577-86; Suda T et al., Cancer Sci 2006 May, 97(5): 411-9; Watanabe T et al., Cancer Sci 2005 August, 96(8): 498-506).
(§1) To examine specific CTL activity, interferon(IFN)-gamma enzyme-linked immunospot (ELISPOT) assay and IFN-gamma enzyme-linked immunosorbent assay (ELISA) were performed. Peptide-pulsed T2 (1×10^4/well) was prepared as stimulator cells. Cultured cells in 48-well plate, CTL lines and CTL clones were used as responder cells. IFN-gamma ELISPOT assay and IFN-gamma ELISA assay were performed under manufacture procedure.

[1] = test system: T2 cells pulsed with the corresponding peptide; assay: IFN-gamma ELISA of established CTL lines; conditions: T2 cells pulsed with corresponding peptide vs T2 cells without peptide pulse
Method: CTLs were expanded in culture using the method similar to the one described by Riddell et al. (Walter E A et al., N Engl J Med 1995 Oct. 19, 333(16): 1038-44; Riddell S R et al., Nat Med 1996 February, 2(2): 216-23). A total of 5×10^4 CTLs were suspended in 25 ml of AIM-V/5% AS medium with 2 kinds of human B-lymphoblastoid cell lines, inactivated by Mitomycin C, in the presence of 40 ng/ml of anti-CD3 monoclonal antibody (Pharmingen). One day after initiating the cultures, 120 IU/ml of IL-2 were added to the cultures. The cultures were fed with fresh AIM-V/5% AS medium containing 30 IU/ml of IL-2 on days 5, 8 and 11 (Tanaka H et al., Br J Cancer 2001 Jan. 5, 84(1): 94-9; Umano Y et al., Br J Cancer 2001 Apr. 20, 84(8): 1052-7; Uchida N et al., Clin Cancer Res 2004 Dec. 15, 10(24): 8577-86; Suda T et al., Cancer Sci 2006 May, 97(5): 411-9; Watanabe T et al., Cancer Sci 2005 August, 96(8): 498-506).
as §1

[2] = test system: T2 cells pulsed with corresponding peptide; assay: IFN-gamma ELISA of CTL clones established by limiting dilution
Method: The dilutions were made to have 0.3, 1, and 3 CTLs/well in 96 round-bottomed micro titer plate (Nalge Nunc International). CTLs were cultured with 1×10^4 cells/well of 2 kinds of human B-lymphoblastoid cell lines, 30 ng/ml of anti-CD3 antibody, and 125 U/ml of IL-2 in a total of 150 microliter/well of AIM-V Medium containing 5% AS. 50 microliter/well of IL-2 were added to the medium 10 days later to reach a final concentration of 125 U/ml IL-2. CTL activity was tested on the 14th day, and CTL clones were expanded using the same method as described above (Uchida N et al., Clin Cancer Res 2004 Dec. 15, 10(24): 8577-86; Suda T et al., Cancer Sci 2006 May, 97(5): 411-9; Watanabe T et al., Cancer Sci 2005 August, 96(8): 498-506).
as §1

UMUC-3 cells = assay: Cytotoxic activity of CTL clone, 51Cr-release; conditions: express both MPHOSPH1 and HLA-A*0201
Method: (§2) The CTL clones were examined for their ability to kill the tumor cells endogenously expressing MPHOSPH1 and HLA-A*0201. Target cells (tumor cell lines) were labeled with 100 micro-Ci of Na2^51CrO4 (Perkin Elmer) for 1 hr in CO2 incubator. Peptide-pulsed target cells were prepared by incubating the cells with 20 microgram/ml of the peptide for 16 hrs before labeling. Target cells labeled with ^51Cr were rinsed and mixed with CTL clones in a final volume of 200 microliter in 96-well round-bottom microtiter plates. The plates were centrifuged (4 minutes at 800 rpm) to increase cell-to-cell contact and placed into CO2 incubator. After 4 hrs of incubation, 50 microliter of the supernatant was collected from each well and the radioactivity was determined with a gamma counter (PerkinElmer). The percentage of specific cytotoxicity was determined by calculating the percentage of specific ^51Cr-release by the following formula: {(cpm of the test sample release−cpm of the spontaneous release)/(cpm of the maximum release−cpm of the spontaneous release)}×100. Spontaneous release was determined by incubating the target cells alone, in the absence of effector cells. The maximum release was obtained by incubating the targets with 1N HCl. All measurements were done in duplicate.

MKN45 cells = assay: Cytotoxic activity of CTL clone, 51Cr-release, HLA-A*0201-negative control; conditions: express MPHOSPH1 but not HLA-A*0201
Method: as §2

T2 cells = assay: Cytotoxic activity of CTL clone, 51Cr-release, MPHOSPH1-negative control; conditions: express HLA-A*0201 but not MPHOSPH1
Method: as §2

Substance | Peptide specific CTL activity (IFN-gamma production) by IFN-gamma ELISPOT (peptide-pulsed T2 cells) | IFN-gamma production of CTL lines by IFN-gamma ELISA [1] | IFN-gamma production from CTL clones by IFN-gamma ELISA [2] | Cytotoxic activity of CTL clone (UMUC-3 cells) | Cytotoxic activity of CTL clone (MKN45 cells) | Cytotoxic activity of CTL clone (T2 cells)
FLLTIENEL (a peptide derived from MPHOSPH1) [SEQ ID NO: 5] | potent IFN-gamma production as compared to the control wells | potent IFN-gamma production against T2 cells pulsed with the corresponding peptide | Potent IFN-gamma production was observed |  |  | 
FQGCIMQPV (a peptide derived from MPHOSPH1) [SEQ ID NO: 14] | potent IFN-gamma production as compared to the control wells | potent IFN-gamma production against T2 cells pulsed with the corresponding peptide |  |  |  | 
GLRAFLLTI (a peptide derived from MPHOSPH1) [SEQ ID NO: 64] | potent IFN-gamma production as compared to the control wells | potent IFN-gamma production against T2 cells pulsed with the corresponding peptide | Potent IFN-gamma production was observed |  |  | 
KLICnETVEV (KLICNETVEV; not fully specified (residue 5); printed as KLICnETVEV) [SEQ ID NO: 77] | potent IFN-gamma production as compared to the control wells | potent IFN-gamma production against T2 cells pulsed with the corresponding peptide | Potent IFN-gamma production was observed |  |  | 
KLLDLIEDL (a peptide derived from MPHOSPH1) [SEQ ID NO: 1] | no specific IFN-gamma production was observed |  |  |  |  | 
KLSNeIETAT (KLSNEIETAT; not fully specified (residue 5); printed as KLSNeIETAT) [SEQ ID NO: 97] | potent IFN-gamma production as compared to the control wells | potent IFN-gamma production against T2 cells pulsed with the corresponding peptide |  |  |  | 
LLTLgKCINV (LLTLGKCINV; not fully specified (residue 5); printed as LLTLgKCINV) [SEQ ID NO: 79] | potent IFN-gamma production as compared to the control wells | potent IFN-gamma production against T2 cells pulsed with the corresponding peptide |  |  |  | 
QLVAaLEIQL (QLVAALEIQL; not fully specified (residue 5); printed as QLVAaLEIQL) [SEQ ID NO: 103] | potent IFN-gamma production as compared to the control wells | potent IFN-gamma production against T2 cells pulsed with the corresponding peptide |  |  |  | 
YIYDLFVPVS [SEQ ID NO: 120, YIYDLFVPVS] |  |  |  | potent cytotoxic activity | no significant cytotoxic activity was detected | no significant cytotoxic activity was detected
YLAYdETLNV (YLAYDETLNV; not fully specified (residue 5); printed as YLAYdETLNV) [SEQ ID NO: 73] | potent IFN-gamma production as compared to the control wells | potent IFN-gamma production against T2 cells pulsed with the corresponding peptide | Potent IFN-gamma production was observed |  |  | 
